{"source": "paper PMC9011347", "about": "“Small-Molecule Inhibitors Targeting Lipolysis in Human Adipocytes” (Journal of the American Chemical Society, 2022)", "key": {"[1]": {"molecular_target": "T1, human ATGL (Homo sapiens, UniProt Q96AD5)", "T1 construct": "host or cells: Expi293 cells, crude lysate", "T1 sequence (Q96AD5 1-504)": "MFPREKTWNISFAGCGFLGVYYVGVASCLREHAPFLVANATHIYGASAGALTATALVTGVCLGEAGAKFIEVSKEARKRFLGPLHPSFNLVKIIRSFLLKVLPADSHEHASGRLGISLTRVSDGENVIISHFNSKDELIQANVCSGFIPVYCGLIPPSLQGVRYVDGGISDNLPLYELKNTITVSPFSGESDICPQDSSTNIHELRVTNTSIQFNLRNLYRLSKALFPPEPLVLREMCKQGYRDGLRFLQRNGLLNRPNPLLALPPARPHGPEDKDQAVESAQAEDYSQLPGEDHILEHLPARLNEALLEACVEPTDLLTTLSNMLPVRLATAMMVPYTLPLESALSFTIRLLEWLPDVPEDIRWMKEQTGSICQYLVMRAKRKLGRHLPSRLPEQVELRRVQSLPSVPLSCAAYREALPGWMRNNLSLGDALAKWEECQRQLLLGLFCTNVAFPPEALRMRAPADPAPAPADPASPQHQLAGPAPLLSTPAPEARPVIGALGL", "design": "method as in PMID 28327588", "details": "cited from earlier work"}, "[2]": {"molecular_target": "T2, Variant c3 containing aa 1–23 of human ATGL (Homo sapiens, UniProt Q96AD5, F69I/F97C/G146T/H109R/I93T/K68N/N133S/S106C/S111N/S158T/S96G/V101T/V60A)", "T2 construct": "host or cells: Expi293 cells, cell lysate", "T2 sequence (Q96AD5 1-288 V60A/K68N/F69I/I93T/S96G/F97C/V101T/S106C/H109R/S111N/N133S/G146T/S158T)": "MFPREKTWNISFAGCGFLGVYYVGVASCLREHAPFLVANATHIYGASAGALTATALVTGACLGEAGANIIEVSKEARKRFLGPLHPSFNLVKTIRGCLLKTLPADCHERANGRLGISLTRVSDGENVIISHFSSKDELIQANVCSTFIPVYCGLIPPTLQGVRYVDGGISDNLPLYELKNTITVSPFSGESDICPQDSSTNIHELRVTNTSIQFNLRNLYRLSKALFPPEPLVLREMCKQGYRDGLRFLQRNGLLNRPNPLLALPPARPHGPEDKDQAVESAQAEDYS", "test": "TAG hydrolase assay, chimeric ATGL variants", "type": "biochemical, human and mouse", "details": "variant c3, NG-497 (10 μM) or Atglistatin (10 μM)", "procedure": "(§1) Figure 5 Analysis of chimeric proteins comprising human and mouse ATGL. (a) Schematic view of the minimal active domain of wild-type and chimeric ATGL variants (c1–c9). Nonidentical aa are indicated in blue and red for mouse and human ATGL, respectively. ATGL variants were expressed in Expi293 cells and TAG hydrolase activity was determined in cell lysates in the presence or absence of NG-497 (10 μM) and Atglistatin (10 μM), respectively. Inhibition of ATGL variants by respective inhibitors (tick mark) and lack of inhibition (cross) is indicated at the right edge. The expression of all ATGL variants was confirmed by Western blotting analysis (Figure S6). (b) Dose-dependent inhibition of human ATGL (aa 1–288) and c1 (human aa 1–158 and mouse aa 159–288) by NG-497. (c) Dose-dependent inhibition of mouse ATGL (aa 1–288) and c2 (mouse aa 1–158 and human aa 159–288) by Ai. IC50 values are shown in the insets. Data are presented as relative inhibition of respective DMSO controls and are indicated as mean ± SD. (d) 3D homology model of the minimal active domain of mouse ATGL (M1–L254) depicted as a cartoon. Residues 1–178 are in blue, and residues 179–254 are in gray. S47 and D166 comprising the active site are represented as green sticks. T101, C106, R109, N111, and S133 are colored in orange, A60, N68, I69, T93, C97, and T146 are colored in magenta. TEXT PRINTED IN THE PICTURE: (b) NG-497: IC50 [μM] (human): 1.3±0.1; IC50 [μM] (c1): 1.3±0.1 | (b) Ai: IC50 [μM] (human): n.det.; IC50 [μM] (c1): n.det. | (c) NG-497: IC50 [μM] (mouse): n.det.; IC50 [μM] (c2): n.det. | (c) Ai: IC50 [μM] (mouse): 2.5±0.3; IC50 [μM] (c2): 2.4±0.1 […]\n(§2) We next generated variants by further stepwise humanization of c2. Variant c3 containing aa 1–23 of human ATGL was inhibited by Ai but not NG-497 (Figure 5a). […] Finally, variants of mouse ATGL containing aa 1–146 (c7) and 60–146 (c8) of human ATGL were inhibited by NG-497 but not Ai (Figure 5a).\n(§3) Experimental details, materials, and methods\n(§4) Expression of recombinant ATGL constructs and preparation of cell lysates. Expi293 cells were cultivated in Expi293 Expression Medium (GIBCO, Thermo Fisher Scientific, Waltham, USA) at standard conditions (37°C, 5% CO2, 95% humidified atmosphere, 125 rpm). DNA constructs containing ATGL from different species and chimeric ATGL variants in pcDNA3.1(+)myc-His C Vector were obtained from BioCat GmbH (Heidelberg, Germany). Cells were transfected with ExpiFectamine293 Transfection Kit (GIBCO) in Opti-Mem reduced serum medium (GIBCO) according to the manufacturer’s instructions. After 48 h, cells were harvested by centrifugation and washed three times with PBS. Cells were disrupted in buffer A (0.25 M sucrose, 1 mM EDTA, 1 mM dithiothreitol, 20µg/ml leupeptin, 2 µg/ml antipain, 1 µg/ml pepstatin, pH 7.0) by sonication (Virsonic 475, Virtis, Gardiner, USA). Nuclei and debris were removed by centrifugation at 1,000 g and 4°C for 10 min. Protein concentrations were determined using Bio-Rad protein assay (Bio-Rad 785, Bio-Rad Laboratories, Munich, Germany) using BSA as standard.\n(§5) Expression and purification of mouse CGI-58. CGI-58 was expressed and purified as described 1. In brief, the coding sequence of mouse Cgi-58 was cloned into pHis-Sumo and co-transformed with the plasmid pTf16 expressing the chaperone Tig into E. coli BL21(DE3). Cells were cultured overnight at 37°C and 180 rpm in the presence of 40 µg/ml kanamycin and 34 µg/ml chloramphenicol. Thereafter, cells were transferred into fresh LB medium, grown until OD600 of 0.6, and expression was induced by the addition of 0.5 mM IPTG. After overnight incubation at 30°C, cells were harvested at 4,500 x g and 4°C for 20 min, washed in 1x PBS, and resuspended in lysis buffer (20 mM Tris/HCl pH 7.8, 300 mM NaCl, 30 mM imidazole, 0.1% IGEPAL CA-630, 3.5 mM β-mercaptoethanol, 20 µg/ml leupeptin, 2 µg/ml antipain and 1 µg/ml pepstatin). Cells were incubated with 1 […]"}, "[3]": {"system": "c8 (mouse ATGL containing aa 60–146 of human ATGL)", "test": "TAG hydrolase assay, chimeric ATGL variants", "type": "biochemical, human and mouse", "details": "variant c8, NG-497 (10 μM) or Atglistatin (10 μM)", "procedure": "as §1, §2, §3, §4, §5"}, "[4]": {"molecular_target": "T3, c7 (mouse ATGL containing aa 1–146 of human ATGL) (Mus musculus, UniProt Q8BJ56, A60V/C106S/C97F/G96S/H22Y/I23V/I69F/K7T/N111S/N68K/R109H/S133N/T101V/T146G/T6K/T93I)", "T3 construct": "host or cells: Expi293 cells, cell lysate", "T3 sequence (Q8BJ56 1-288 with the stated changes limits assumed)": "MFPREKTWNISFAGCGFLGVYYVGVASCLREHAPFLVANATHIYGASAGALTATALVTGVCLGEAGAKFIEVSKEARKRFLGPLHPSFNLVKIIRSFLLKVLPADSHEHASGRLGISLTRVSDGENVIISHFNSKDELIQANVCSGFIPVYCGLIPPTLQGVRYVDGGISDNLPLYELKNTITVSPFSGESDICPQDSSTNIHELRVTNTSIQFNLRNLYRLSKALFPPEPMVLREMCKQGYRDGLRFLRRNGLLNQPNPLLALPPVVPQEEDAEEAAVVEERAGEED", "test": "TAG hydrolase assay, chimeric ATGL variants", "type": "biochemical, human and mouse", "details": "variant c7, NG-497 (10 μM) or Atglistatin (10 μM)", "procedure": "as §1, §2, §3, §4, §5"}}, "data": [{"compound": "CN(C)C(=O)Nc1cccc(-c2ccc(N(C)C)cc2)c1", "note": "[Atglistatin, reference compound]", "values": [{"measurement": "efficacy against human ATGL", "setting": "[1]", "value": "ineffective"}, {"measurement": "inhibition of TAG hydrolase activity", "setting": "[2]", "value": "inhibited"}]}, {"compound": "CCOc1ccc(-c2cc(OC)cc(C(=O)OC(C)C)n2)cc1", "note": "[NG-497]", "values": [{"measurement": "inhibition of TAG hydrolase activity", "setting": "[3]", "value": "inhibited"}, {"measurement": "inhibition of TAG hydrolase activity", "setting": "[4]", "value": "inhibited"}]}]}
